Measured values from the supplement of paper PMC11208160.

Assay: recombinant UMI read abundance after kanamycin selection (control-corrected) (log10(CPM+1)); higher = more efficient recombination; extreme values may be limits of the assay; sequences stand for … in AGTGCAGAGAAAATCGGCCAGTTTTCTCTGCCTGCAGTCCGCATGCCGTGGGACCCCTTGGGTTCTAACCTGTTGCCTAGATTTATGCAGCGGACTGCCTTTCTCCCAAAGTGATAAACCGG…AGGTTGGTTTCACT; site = the 11-nt donor
In short: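 Values are reported as log10(CPM+1), obtained by converting sequencing counts to CPM, averaging replicates and scaling by control-derived factors. The counts came from recombinant UMIs amplified by PCR across the donor–target junction. These UMIs came from a pooled Escherichia coli screen of donor and donor-binding-loop pairs for the IS621 bridge recombinase, plated with IPTG (0.07 mM) plus kanamycin or left unselected, in two replicates each.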
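Note: IS621 bridge recombinase in Escherichia coli cells against a fixed T5 target plasmid.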

Sequence | recombinant UMI read abundance (log10)
CTGCCTACATGGACCGGTTTTCCCGGTAATCCGTATTTGAG (site CTGCCTACTCT) | 1.03
CTGCCTACATGGACCGGTTTTCCCGGTAATCCGTATTTGAG (site CTTCCTACTCT) | 0.12
CTGCGAACATGGACCGGTTTTCCCGGTAATCCGTATTTGCA (site CTGCGAACTTG) | 1.38
CTGCGGTCATGGACCGGTTTTCCCGGTAATCCGTATTTGTC (site CTGCGGTCTGA) | 2.1
CTGCGTGCATGGACCGGTTTTCCCGGTAATCCGTATTTGGT (site CTGCGTGCTAC) | 1.37
CTGCTACCATGGACCGGTTTTCCCGGTAATCCGTATTTGCG (site CTGCTACCTAG) | 0
CTGCTACCATGGACCGGTTTTCCCGGTAATCCGTATTTGCG (site CTGCTACCTCG) | 0.309
CTGCTACCATGGACCGGTTTTCCCGGTAATCCGTATTTGCG (site CTGCTACCTGG) | 0
CTGCTACCATGGACCGGTTTTCCCGGTAATCCGTATTTGCG (site CTGCTACCTTG) | 0
CTGCTACCATGGACCGGTTTTCCCGGTAATCCGTATTTGTT (site CTGCTACCTAA) | 0.0134
CTGCTACCATGGACCGGTTTTCCCGGTAATCCGTATTTGTT (site CTGCTACCTAC) | 0.0167
CTGCTACCATGGACCGGTTTTCCCGGTAATCCGTATTTGTT (site CTGCTACCTAG) | 0
CTGCTACCATGGACCGGTTTTCCCGGTAATCCGTATTTGTT (site CTGCTACCTAT) | 0.011
CTGCTAGCATGGACCGGTTTTCCCGGTAATCCGTATTTGCT (site CTGCTAACTAG) | 0
CTGCTAGCATGGACCGGTTTTCCCGGTAATCCGTATTTGCT (site CTGCTACCTAG) | 0
CTGCTAGCATGGACCGGTTTTCCCGGTAATCCGTATTTGCT (site CTGCTAGCTAG) | 0
CTGCTAGCATGGACCGGTTTTCCCGGTAATCCGTATTTGCT (site CTGCTATCTAG) | 0
CTGCTATCATGGACCGGTTTTCCCGGTAATCCGTATTTGCT (site CTGCTAACTAG) | 0.708
CTGCTATCATGGACCGGTTTTCCCGGTAATCCGTATTTGCT (site CTGCTACCTAG) | 0

Sequence | recombinant UMI read abundance (log10)
CTGCTATCATGGACCGGTTTTCCCGGTAATCCGTATTTGCT (site CTGCTAGCTAG) | 0.0179
CTGCTATCATGGACCGGTTTTCCCGGTAATCCGTATTTGCT (site CTGCTATCTAG) | 2.33
CTGCTGCCATGGACCGGTTTTCCCGGTAATCCGTATTTGCT (site CTGCTACCTAG) | 0.00624
CTGCTGCCATGGACCGGTTTTCCCGGTAATCCGTATTTGCT (site CTGCTCCCTAG) | 0.506
CTGCTGCCATGGACCGGTTTTCCCGGTAATCCGTATTTGCT (site CTGCTGCCTAG) | 1.22
CTGCTGCCATGGACCGGTTTTCCCGGTAATCCGTATTTGCT (site CTGCTTCCTAG) | 0
CTGCTTCCATGGACCGGTTTTCCCGGTAATCCGTATTTGCT (site CTGCTACCTAG) | 0
CTGCTTCCATGGACCGGTTTTCCCGGTAATCCGTATTTGCT (site CTGCTCCCTAG) | 0.807
CTGCTTCCATGGACCGGTTTTCCCGGTAATCCGTATTTGCT (site CTGCTGCCTAG) | 0.00367
CTGCTTCCATGGACCGGTTTTCCCGGTAATCCGTATTTGCT (site CTGCTTCCTAG) | 1.73
CTGGAACCATGGACCGGTTTTCCCGGTAATCCGTATTTGAT (site CAGGAACCTAT) | 0
CTGGAACCATGGACCGGTTTTCCCGGTAATCCGTATTTGAT (site CCGGAACCTAT) | 0
CTGGAACCATGGACCGGTTTTCCCGGTAATCCGTATTTGAT (site CGGGAACCTAT) | 0
CTGGAACCATGGACCGGTTTTCCCGGTAATCCGTATTTGAT (site CTGGAACCTAT) | 0
CTGGAACCATGGACCGGTTTTCCCGGTAATCCGTATTTGCA (site CTGGAAACTTG) | 0
CTGGAACCATGGACCGGTTTTCCCGGTAATCCGTATTTGCA (site CTGGAACCTTG) | 0
CTGGAACCATGGACCGGTTTTCCCGGTAATCCGTATTTGCA (site CTGGAAGCTTG) | 0.00806
CTGGAACCATGGACCGGTTTTCCCGGTAATCCGTATTTGCA (site CTGGAATCTTG) | 2.36
CTGGACACATGGACCGGTTTTCCCGGTAATCCGTATTTGCA (site CTGGAAACTTG) | 0.462

Sequence | recombinant UMI read abundance (log10)
CTGGACACATGGACCGGTTTTCCCGGTAATCCGTATTTGCA (site CTGGACACTTG) | 2.59
CTGGACACATGGACCGGTTTTCCCGGTAATCCGTATTTGCA (site CTGGAGACTTG) | 0.00455
CTGGACACATGGACCGGTTTTCCCGGTAATCCGTATTTGCA (site CTGGATACTTG) | 1.66
CTGGGCCCATGGACCGGTTTTCCCGGTAATCCGTATTTGCC (site CTGGGCCCTGG) | 0
CTGGTAACATGGACCGGTTTTCCCGGTAATCCGTATTTGCA (site CTGGAAACTTG) | 1.03
CTGGTAACATGGACCGGTTTTCCCGGTAATCCGTATTTGCA (site CTGGCAACTTG) | 0.197
CTGGTAACATGGACCGGTTTTCCCGGTAATCCGTATTTGCA (site CTGGGAACTTG) | 0
CTGGTAACATGGACCGGTTTTCCCGGTAATCCGTATTTGCA (site CTGGTAACTTG) | 2.06
CTGGTATCATGGACCGGTTTTCCCGGTAATCCGTATTTGAC (site CTAGTATCTGT) | 3.16
CTGGTATCATGGACCGGTTTTCCCGGTAATCCGTATTTGAC (site CTCGTATCTGT) | 0
CTGGTATCATGGACCGGTTTTCCCGGTAATCCGTATTTGAC (site CTGGTATCTGT) | 3.22
CTGGTATCATGGACCGGTTTTCCCGGTAATCCGTATTTGAC (site CTTGTATCTGT) | 0.816
CTGGTCGCATGGACCGGTTTTCCCGGTAATCCGTATTTGCA (site CTGGTCGCTTG) | 2.01
CTGTACCCATGGACCGGTTTTCCCGGTAATCCGTATTTGAG (site CTGTACCCTCT) | 0.00463
CTGTCAGCATGGACCGGTTTTCCCGGTAATCCGTATTTGGT (site CTGTCAGCTAC) | 0.563
CTGTCCTCATGGACCGGTTTTCCCGGTAATCCGTATTTGTT (site CTGTCCTCTAA) | 1.92
CTGTCGACATGGACCGGTTTTCCCGGTAATCCGTATTTGGT (site CTGTCGACTAC) | 0.884
CTGTCGGCATGGACCGGTTTTCCCGGTAATCCGTATTTGCC (site CTGTCGGCTGG) | 0
CTGTCTCCATGGACCGGTTTTCCCGGTAATCCGTATTTGAG (site CTGTCTCCTCT) | 0.0686
